Laboratory results as given in ChEMBL document CHEMBL1201862, “PubChem BioAssay data set” (2004).
Each block holds one compound with its values, some of them ahead of it. Calls of active or inactive are those of the source.

Assays:
[1] = viability of HCT116 lacking mutant beta-catenin – cell-based, human colon tumor, dose response (AID 1045); assay type: functional;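 also: HCT116 colon tumor cells with beta catenin knocked out; cells exposed to compound for 60 hours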
[2] = viability of PTEN-deleted HCT116 cells – cell-based, HCT116 PTEN knockout, dose response (AID 1047); assay type: functional;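 also: HCT116 colon tumor cells with PTEN knocked out; cells exposed to compound for 60 hours before readout; potency for loss of cell viability measured by luminescence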
[3] = biological target: T1, Sentrin-specific protease 6 (Homo sapiens, UniProt Q9GZR1); assay type: functional;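 also: Luminescence-based dose-response confirmatory assay of SENP6 inhibition, following up an ultra-high-throughput screen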
T1 sequence (Q9GZR1 whole entry): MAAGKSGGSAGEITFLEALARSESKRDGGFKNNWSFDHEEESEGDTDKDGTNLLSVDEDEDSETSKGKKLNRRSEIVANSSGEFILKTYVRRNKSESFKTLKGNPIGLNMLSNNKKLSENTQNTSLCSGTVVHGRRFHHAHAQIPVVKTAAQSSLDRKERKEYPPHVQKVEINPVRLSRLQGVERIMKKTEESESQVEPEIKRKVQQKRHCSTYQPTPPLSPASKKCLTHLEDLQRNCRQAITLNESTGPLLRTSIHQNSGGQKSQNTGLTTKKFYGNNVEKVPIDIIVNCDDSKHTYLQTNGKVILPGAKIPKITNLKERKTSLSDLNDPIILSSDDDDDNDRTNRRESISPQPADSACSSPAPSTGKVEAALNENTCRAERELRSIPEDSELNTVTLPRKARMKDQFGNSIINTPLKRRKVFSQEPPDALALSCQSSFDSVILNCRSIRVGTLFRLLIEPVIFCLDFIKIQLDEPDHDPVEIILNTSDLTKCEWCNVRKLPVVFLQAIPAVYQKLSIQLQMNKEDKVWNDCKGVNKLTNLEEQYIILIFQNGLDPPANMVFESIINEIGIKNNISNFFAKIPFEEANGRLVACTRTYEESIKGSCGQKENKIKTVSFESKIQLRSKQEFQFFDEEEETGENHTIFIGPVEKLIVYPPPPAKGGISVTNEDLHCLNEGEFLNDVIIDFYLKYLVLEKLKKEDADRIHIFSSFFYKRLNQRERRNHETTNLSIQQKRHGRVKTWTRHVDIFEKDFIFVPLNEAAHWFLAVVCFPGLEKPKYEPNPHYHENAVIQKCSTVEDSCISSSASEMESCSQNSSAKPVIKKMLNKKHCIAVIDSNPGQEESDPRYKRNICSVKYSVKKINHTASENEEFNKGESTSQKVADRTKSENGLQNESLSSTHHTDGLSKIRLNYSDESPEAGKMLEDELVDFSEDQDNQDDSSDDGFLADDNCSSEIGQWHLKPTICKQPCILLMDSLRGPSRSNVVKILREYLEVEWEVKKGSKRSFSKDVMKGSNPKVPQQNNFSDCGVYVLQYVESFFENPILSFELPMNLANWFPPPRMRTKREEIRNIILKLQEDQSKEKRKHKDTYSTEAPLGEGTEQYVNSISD

[4] = biological target: T2, Caspase-3 (Homo sapiens, UniProt P42574); assay type: functional;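 also: Dose-response selectivity test against caspase-3 for candidate inhibitors of sentrin-specific proteases (SENPs)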
T2 sequence (P42574 whole entry): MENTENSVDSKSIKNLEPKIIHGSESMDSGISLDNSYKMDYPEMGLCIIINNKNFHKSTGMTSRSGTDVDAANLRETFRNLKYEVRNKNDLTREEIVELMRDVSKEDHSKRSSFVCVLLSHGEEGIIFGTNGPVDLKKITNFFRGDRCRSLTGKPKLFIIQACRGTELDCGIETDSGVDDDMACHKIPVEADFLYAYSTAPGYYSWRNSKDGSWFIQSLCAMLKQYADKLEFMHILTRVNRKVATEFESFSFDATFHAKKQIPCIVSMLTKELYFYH

[5] = biological target: T3, Sentrin-specific protease 8 (Homo sapiens, UniProt Q96LD8); assay type: functional;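 also: luminescence read-out of SENP8 inhibition, dose-response confirmation following an ultra-high-throughput screen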
T3 sequence (Q96LD8 whole entry): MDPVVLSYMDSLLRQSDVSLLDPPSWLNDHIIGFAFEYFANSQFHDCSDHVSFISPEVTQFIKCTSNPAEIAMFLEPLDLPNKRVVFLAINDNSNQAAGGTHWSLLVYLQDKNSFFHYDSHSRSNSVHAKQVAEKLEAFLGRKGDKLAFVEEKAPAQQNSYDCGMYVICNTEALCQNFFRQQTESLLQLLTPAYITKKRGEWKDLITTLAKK

[6] = biological target: T4, Sentrin-specific protease 7 (Homo sapiens, UniProt Q9BQF6); assay type: functional;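 also: Luminescence-based dose-response confirmation of ultra-high-throughput screening hits, measuring inhibition of SENP7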
T4 sequence (Q9BQF6 whole entry): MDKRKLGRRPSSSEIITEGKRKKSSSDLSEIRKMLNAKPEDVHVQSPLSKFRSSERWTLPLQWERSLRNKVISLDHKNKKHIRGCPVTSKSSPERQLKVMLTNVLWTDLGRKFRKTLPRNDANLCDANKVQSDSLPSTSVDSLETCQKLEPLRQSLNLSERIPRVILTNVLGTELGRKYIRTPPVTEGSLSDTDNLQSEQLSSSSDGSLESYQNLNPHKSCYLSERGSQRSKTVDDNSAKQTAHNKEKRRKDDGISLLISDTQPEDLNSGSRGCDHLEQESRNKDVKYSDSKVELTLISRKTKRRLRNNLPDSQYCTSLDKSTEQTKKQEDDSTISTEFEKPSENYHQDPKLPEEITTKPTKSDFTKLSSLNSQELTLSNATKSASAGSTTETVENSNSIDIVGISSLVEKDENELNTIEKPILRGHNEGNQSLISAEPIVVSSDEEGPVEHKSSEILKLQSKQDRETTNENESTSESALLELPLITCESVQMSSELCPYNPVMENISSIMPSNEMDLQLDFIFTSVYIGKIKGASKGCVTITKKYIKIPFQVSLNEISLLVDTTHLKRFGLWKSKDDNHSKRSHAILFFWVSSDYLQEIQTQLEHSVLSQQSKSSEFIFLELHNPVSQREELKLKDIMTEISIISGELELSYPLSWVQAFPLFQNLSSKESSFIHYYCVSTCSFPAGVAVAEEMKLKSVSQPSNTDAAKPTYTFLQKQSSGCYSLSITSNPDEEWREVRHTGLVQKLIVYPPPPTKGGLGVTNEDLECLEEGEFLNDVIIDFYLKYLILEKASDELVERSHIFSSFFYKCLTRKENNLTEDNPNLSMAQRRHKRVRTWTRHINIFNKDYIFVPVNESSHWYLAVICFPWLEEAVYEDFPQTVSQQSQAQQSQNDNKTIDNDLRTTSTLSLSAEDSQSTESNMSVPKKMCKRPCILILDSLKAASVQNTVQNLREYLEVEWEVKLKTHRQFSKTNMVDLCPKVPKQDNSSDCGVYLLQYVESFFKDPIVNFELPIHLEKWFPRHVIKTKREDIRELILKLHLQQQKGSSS

[7] = biological target: T5, Protein skinhead-1 (Caenorhabditis elegans, UniProt P34707); assay type: functional
T5 sequence (P34707 whole entry): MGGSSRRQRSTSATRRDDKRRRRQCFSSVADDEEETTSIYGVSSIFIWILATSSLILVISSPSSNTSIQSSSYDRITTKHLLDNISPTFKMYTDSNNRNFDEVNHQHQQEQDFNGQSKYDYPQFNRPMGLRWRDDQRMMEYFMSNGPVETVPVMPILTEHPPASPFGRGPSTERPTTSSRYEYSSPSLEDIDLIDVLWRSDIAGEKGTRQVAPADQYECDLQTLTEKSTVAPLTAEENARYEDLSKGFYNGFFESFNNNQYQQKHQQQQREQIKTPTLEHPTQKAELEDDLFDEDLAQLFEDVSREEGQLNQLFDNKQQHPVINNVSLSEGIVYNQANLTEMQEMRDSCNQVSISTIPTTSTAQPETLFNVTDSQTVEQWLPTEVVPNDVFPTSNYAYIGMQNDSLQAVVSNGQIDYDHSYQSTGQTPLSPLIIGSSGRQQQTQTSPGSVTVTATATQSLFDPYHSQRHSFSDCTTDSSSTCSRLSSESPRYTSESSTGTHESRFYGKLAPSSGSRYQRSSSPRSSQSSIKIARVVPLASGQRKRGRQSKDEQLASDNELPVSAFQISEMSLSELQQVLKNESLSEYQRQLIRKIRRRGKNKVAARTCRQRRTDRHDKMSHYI

[8] = system: P388/ADR; experiment: cells; assay type: functional; details: Mus musculus
[9] = system: P388; experiment: cells; assay type: functional; details: Mus musculus
[10] = system: SN12K1; experiment: cells; assay type: functional; details: Homo sapiens
[11] = A549 cell cytotoxicity, dose response, cytotoxicity control, plate reader, cherry-pick, antagonist series (AID 743412); assay type: functional, cell-based
[12] = toxicity toward HepG2 liver cells – cell-based, plate reader, cherry-pick, antagonist series, cytotoxicity control, dose response (AID 743416); assay type: functional
[13] = blockers of HIV-1 envelope-mediated cell-cell fusion – cherry-pick, dose response (AID 652057); assay type: functional, cell-based
[14] = HIV-1 AD8 envelope cell-cell fusion blockers – cherry-pick, dose response (AID 652062); assay type: functional, cell-based;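 also: luciferase signal from cell-cell fusion driven by HIV-1 clade B AD8 Env; potency is for inhibitors of fusion seen as a drop in luminescence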
[15] = viability of uninfected HEp-2 cells – cell-based, HTS, cytotoxicity control for RSV inhibitor project, dose response (AID 2410); assay type: functional; details: human respiratory syncytial virus

SMILES: COc1ccc(/C(O)=C/c2nc3ccc(C(=O)NCCc4cccc(C)c4)cc3nc2O)cc1OC
EC50 [1]: 5.65 µM (active) | EC50 [2]: 6.66 µM (active)

IC50 [3]: 10.3 µM (active) | IC50 [4]: 27.1 µM (active) | IC50 [6]: 6.14 µM (active)
SMILES: O=C(Cn1cc(SCc2ccc(Cl)cc2)c2ccccc21)N1CCOCC1
IC50 [5]: > 100 µM (inactive)

IC50 [3]: 20.1 µM (active) | IC50 [4]: 26.6 µM (active) | IC50 [6]: 5.47 µM (active)
SMILES: Cc1cccc(OCc2cc(-c3ccccc3)no2)c1C
IC50 [5]: 42.8 µM (active)

IC50 [3]: 69.3 µM (active) | IC50 [4]: 39.9 µM (active) | IC50 [6]: 15.6 µM (active)
SMILES: O=C(COc1ccc(Cc2ccccc2)cc1)c1ccc(F)cc1
IC50 [5]: > 100 µM (inactive)

SMILES: Cc1c(Cl)cccc1N/C(SCC(=O)N1CCCCCC1)=C(/C#N)c1nc2ccccc2s1
EC50 [1]: 4.02 µM (active) | EC50 [2]: 4.06 µM (active)

SMILES: O=C(NC(=S)Nc1ccc(NC(=O)c2cccs2)cc1)c1cc2ccccc2o1
EC50 [1]: 22.6 µM (active) | EC50 [2]: 15.5 µM (active)

IC50 [3]: 6.65 µM (active) | IC50 [4]: 20.5 µM (active) | IC50 [6]: 12.1 µM (active) | IC50 [7]: > 100 µM (inactive)
SMILES: Cc1ccccc1-c1nnc(-c2ccccc2C)o1
IC50 [5]: 95.5 µM (active)

SMILES: CCCCCCCCCCCCCCCCOCC(COP(=O)([O-])OCC[N+](C)(C)C)OCCCCCCCCCCCCCCCC (stereo not given)
GI50 [8]: > 100 µM (inactive) | GI50 [9]: > 100 µM (inactive) | GI50 [10]: > 100 µM (inactive)

SMILES: CN(c1ccccc1)c1c(-c2ccccc2)c(=O)oc2c1ccc1occc12
GI50 [8]: 74.6 µM (inactive) | GI50 [9]: 37.8 µM (inactive) | GI50 [10]: > 100 µM (inactive)

SMILES: COc1cc2c(cc1Oc1c(Oc3c(O)c(OC)cc4c3C(CC(C)C)N(C)CC4)c(OC)cc3c1C(CC(C)C)N(C)CC3)C(CC(C)C)N(C)CC2 (stereo not given)
GI50 [8]: 0.706 µM (active) | GI50 [9]: 0.279 µM (active) | GI50 [10]: 0.794 µM (active)

SMILES: CCN(CC)c1c(C)c(C(=O)OC)nn1-c1ccccc1
GI50 [8]: 31.6 µM (inactive) | GI50 [9]: 34.8 µM (inactive) | GI50 [10]: > 100 µM (inactive)

SMILES: COc1ccccc1CN(C)C[C@@H]1OCc2cnnn2CCCC(=O)N([C@H](C)CO)C[C@H]1C
AC50 [11]: > 52 µM (inactive) | AC50 [12]: 39.8 µM (active)

SMILES: COc1cccc(S(=O)(=O)N(C)C[C@H]2Oc3cc(C4=CCCC4)ccc3S(=O)(=O)N([C@H](C)CO)C[C@H]2C)c1
AC50 [13]: 3.31 µM (active) | AC50 [14]: 3.77 µM (active)

IC50 [3]: 8 µM (active) | IC50 [4]: 41.8 µM (active) | IC50 [6]: 3.79 µM (active)
SMILES: Cc1cccnc1Nc1nc(-c2ccc(O)cc2O)cs1
IC50 [5]: 15.5 µM (active) | CC50 [15]: 27 µM (active)

SMILES: C=C1CC(OC)(C(O)C(=O)N[C@H]2OCO[C@H]3C2O[C@H](C[C@@H](CO)OC)C(C)(C)C3OC)O[C@H](C)[C@@H]1C (stereo not given in full)
GI50 [8]: < 0.00931 µM (active) | GI50 [9]: < 0.00931 µM (active) | GI50 [10]: < 0.00931 µM (active)

SMILES: O=C1C(=O)c2cc([N+](=O)[O-])ccc2-c2ccc([N+](=O)[O-])cc21
GI50 [8]: 0.292 µM (active) | GI50 [9]: 0.201 µM (active) | GI50 [10]: 0.29 µM (active)

SMILES: O=C(N/N=C/c1cccs1)c1cccc(NC(=O)c2ccc(Cl)cc2)c1
EC50 [1]: 55.4 µM (active) | EC50 [2]: 61.1 µM (active)

IC50 [3]: 2.5 µM (active) | IC50 [4]: 2.59 µM (active) | IC50 [6]: 1.9 µM (active)
SMILES: O=C1c2ccccc2-c2nnc(-c3ccc(F)cc3)cc21
IC50 [5]: 3.58 µM (active)

SMILES: COc1ccc2c(c1[N+](=O)[O-])CC[C@@H]1[C@@H]2CC[C@]2(C)C(=O)CC[C@@H]12
GI50 [8]: 20.9 µM (inactive) | GI50 [9]: > 25 µM (inactive) | GI50 [10]: > 25 µM (inactive)

SMILES: Nc1c(C(=O)Nc2ccc(C3=NCCN3)cc2)cccc1C(=O)Nc1ccc(C2=NCCN2)cc1
GI50 [8]: > 100 µM (inactive) | GI50 [9]: 12.5 µM (inactive) | GI50 [10]: > 100 µM (inactive)

SMILES: Oc1ncc(N(CCCl)CCCl)c(O)n1 [URACIL MUSTARD]
GI50 [8]: 1.77 µM (inactive) | GI50 [9]: 1.26 µM (inactive) | GI50 [10]: 17.4 µM (inactive)
